In patent US11834453B2, “Substituted pyrimido[5,4-d]pyrimidines as HER2 inhibitors” (Array BioPharma Inc., priority 2020, dated 2023):
Where two headings read alike, the source gives them in different places.

Tests used:
[1] = target: ErbB2 insYVMA (HER2-YVMA, SEQ ID NO: 2) (Homo sapiens, UniProt P04626, INS775YVMA/P1170A); assay: biochemical; details: ErbB2 insYVMA enzyme assay
ErbB2 WT = ErbB2 WT (Homo sapiens (Human), UniProt P04626); assay: ErbB enzyme assay (CisBio HTRF KinEASE-TK), Assay 2; assay type: biochemical
Procedure, shortened: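 ErbB2 phosphorylates 250 nM biotin-TK substrate at 1 mM ATP in 25 mM HEPES pH 7.4, 10 mM MgCl2, 0.01% Triton X-100 and 2% DMSO, for 30 min at 22 °C. Product is detected by HTRF with Sa-XL665 and TK-Ab-Cryptate. Percent of control is set by DMSO-only wells and pre-quenched wells.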

EGFR = EGFR (Homo sapiens (Human), UniProt P00533); assay: ErbB enzyme assay (CisBio HTRF KinEASE-TK), Assay 3; assay type: biochemical
Procedure, shortened: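 Inhibition is measured as reduced peptide phosphorylation by HTRF KinEASE-TK at 1 mM ATP and 250 nM substrate, 30 min at 22 °C. Values are IC50s from a 4-parameter logistic fit.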

[2] = target: ErbB2 with Exon 20 YVMA insertion (HER2-YVMA) (Homo sapiens (Human), UniProt P04626, INS775YVMA); assay: Cellular phosphorylation assay, constitutive ErbB2 phosphorylation (Y1196) in engineered NIH 3T3 cells, Assay 4; assay type: cell-based
Procedure, shortened: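 Engineered NIH 3T3 cells expressing HER2-YVMA treated with compounds 1 h at 37 °C, then formaldehyde-fixed and methanol-permeabilized. pErbB2 Y1196 detected by in-cell infrared immunofluorescence, normalized to GAPDH. IC50 from the normalized curves.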

EGFR wild type (EGFR WT) = EGFR wild type (EGFR WT) (Homo sapiens (Human), UniProt P00533); assay: Cellular phosphorylation assay, EGF-stimulated EGFR phosphorylation in engineered NIH 3T3 cells, Phospho-EGFR DuoSet IC ELISA, Assay 5; assay type: cell-based
Protocol: NIH 3T3 cells were engineered to express EGFR wild type (EGFR WT; Assay 5, no footnote) with constructs obtained from GenScript and grown in DMEM supplemented with 10% fetal bovine serum and 15 μg/ml blasticidin. Cells were plated in 96-well plates at 20,000 cells/well and allowed to attach overnight at 37° C./5% CO2. Serially diluted compounds were added to the plates for 1 hour at 37° C./5% CO2. EGFR WT cells were stimulated with 100 ng/ml rEGF for an additional 10 minutes at 37° C./5% CO2. After compound incubation, medium was removed from the cells, which were then lysed in 100 μL/well lysis buffer according to the manufacturer's protocol (R&D Systems, DYC1095, Human Phospho-EGFR DuoSet IC ELISA). Same protocol was followed to determine the total levels of phospho-EGFR by measuring the optical density of each well using a VersaMax microplate reader. Curves were then generated and IC50 values calculated.

ErbB2 insYVMA (HER2-YVMA, SEQ ID NO: 2), sequence (P04626 with tags, fused parts or gaps INS775YVMA/P1170A limits assumed): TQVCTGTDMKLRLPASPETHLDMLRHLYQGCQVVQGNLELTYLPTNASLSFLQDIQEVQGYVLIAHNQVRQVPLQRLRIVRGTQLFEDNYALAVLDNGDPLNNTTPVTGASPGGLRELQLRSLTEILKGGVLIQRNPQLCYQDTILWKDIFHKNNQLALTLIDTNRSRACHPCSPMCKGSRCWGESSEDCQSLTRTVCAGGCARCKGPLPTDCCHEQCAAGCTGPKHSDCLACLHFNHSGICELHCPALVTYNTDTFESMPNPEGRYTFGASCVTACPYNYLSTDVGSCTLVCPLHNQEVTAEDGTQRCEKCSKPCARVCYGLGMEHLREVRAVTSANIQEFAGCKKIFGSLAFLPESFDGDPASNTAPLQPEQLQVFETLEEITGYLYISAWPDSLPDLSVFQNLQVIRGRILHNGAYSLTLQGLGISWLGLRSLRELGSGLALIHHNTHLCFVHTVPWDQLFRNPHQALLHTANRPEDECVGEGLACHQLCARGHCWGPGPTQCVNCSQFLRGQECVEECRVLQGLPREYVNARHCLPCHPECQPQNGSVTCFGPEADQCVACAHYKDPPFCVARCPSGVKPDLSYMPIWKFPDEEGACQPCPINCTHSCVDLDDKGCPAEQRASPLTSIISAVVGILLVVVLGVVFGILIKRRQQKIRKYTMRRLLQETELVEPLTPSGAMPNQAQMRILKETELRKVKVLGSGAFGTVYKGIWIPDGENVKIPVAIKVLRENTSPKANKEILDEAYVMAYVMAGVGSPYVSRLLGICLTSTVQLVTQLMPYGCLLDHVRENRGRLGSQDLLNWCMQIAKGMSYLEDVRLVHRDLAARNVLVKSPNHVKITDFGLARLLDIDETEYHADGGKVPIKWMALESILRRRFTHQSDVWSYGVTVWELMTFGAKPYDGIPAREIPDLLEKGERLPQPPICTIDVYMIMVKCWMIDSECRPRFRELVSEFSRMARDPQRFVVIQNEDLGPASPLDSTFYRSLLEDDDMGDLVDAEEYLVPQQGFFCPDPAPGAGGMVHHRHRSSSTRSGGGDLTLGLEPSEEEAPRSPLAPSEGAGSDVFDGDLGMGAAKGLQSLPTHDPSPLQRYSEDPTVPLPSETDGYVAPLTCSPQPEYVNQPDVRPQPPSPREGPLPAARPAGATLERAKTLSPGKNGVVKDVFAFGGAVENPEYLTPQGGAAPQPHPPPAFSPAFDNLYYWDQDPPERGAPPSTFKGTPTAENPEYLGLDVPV
EGFR wild type (EGFR WT), sequence (P00533 25-1210): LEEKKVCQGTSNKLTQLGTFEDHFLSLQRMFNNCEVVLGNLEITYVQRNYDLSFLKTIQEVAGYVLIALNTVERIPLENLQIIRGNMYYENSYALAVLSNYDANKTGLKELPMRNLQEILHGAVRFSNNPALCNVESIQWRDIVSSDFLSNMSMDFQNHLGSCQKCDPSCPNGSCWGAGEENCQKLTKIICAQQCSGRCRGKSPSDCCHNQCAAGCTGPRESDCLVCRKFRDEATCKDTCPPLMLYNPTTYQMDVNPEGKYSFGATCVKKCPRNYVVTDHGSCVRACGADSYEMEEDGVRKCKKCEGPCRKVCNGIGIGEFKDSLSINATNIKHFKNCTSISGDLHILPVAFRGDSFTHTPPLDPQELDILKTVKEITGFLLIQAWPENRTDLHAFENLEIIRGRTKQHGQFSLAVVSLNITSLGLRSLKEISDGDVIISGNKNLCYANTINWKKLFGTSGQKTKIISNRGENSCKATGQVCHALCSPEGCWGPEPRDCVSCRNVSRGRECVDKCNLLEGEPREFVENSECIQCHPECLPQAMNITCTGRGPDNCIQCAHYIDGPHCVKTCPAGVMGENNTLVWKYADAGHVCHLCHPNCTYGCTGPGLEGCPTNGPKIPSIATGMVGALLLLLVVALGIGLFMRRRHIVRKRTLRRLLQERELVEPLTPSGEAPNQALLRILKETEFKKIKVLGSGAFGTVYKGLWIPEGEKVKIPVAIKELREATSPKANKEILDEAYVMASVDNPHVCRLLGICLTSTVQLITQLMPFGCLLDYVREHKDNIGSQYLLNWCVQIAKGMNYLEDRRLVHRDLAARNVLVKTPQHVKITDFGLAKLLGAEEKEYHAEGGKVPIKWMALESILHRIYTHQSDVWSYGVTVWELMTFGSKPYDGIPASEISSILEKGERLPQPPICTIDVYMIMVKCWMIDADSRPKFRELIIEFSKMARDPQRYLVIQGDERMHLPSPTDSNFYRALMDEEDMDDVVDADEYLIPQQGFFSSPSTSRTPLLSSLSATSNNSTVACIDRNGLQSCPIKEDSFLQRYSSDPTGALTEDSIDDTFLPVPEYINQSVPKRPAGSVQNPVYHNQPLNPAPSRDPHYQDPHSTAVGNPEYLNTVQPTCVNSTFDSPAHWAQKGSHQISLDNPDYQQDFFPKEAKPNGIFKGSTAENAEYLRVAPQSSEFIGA
EGFR, sequence (P00533 25-1210): as above
ErbB2 WT, sequence (P04626 23-1255): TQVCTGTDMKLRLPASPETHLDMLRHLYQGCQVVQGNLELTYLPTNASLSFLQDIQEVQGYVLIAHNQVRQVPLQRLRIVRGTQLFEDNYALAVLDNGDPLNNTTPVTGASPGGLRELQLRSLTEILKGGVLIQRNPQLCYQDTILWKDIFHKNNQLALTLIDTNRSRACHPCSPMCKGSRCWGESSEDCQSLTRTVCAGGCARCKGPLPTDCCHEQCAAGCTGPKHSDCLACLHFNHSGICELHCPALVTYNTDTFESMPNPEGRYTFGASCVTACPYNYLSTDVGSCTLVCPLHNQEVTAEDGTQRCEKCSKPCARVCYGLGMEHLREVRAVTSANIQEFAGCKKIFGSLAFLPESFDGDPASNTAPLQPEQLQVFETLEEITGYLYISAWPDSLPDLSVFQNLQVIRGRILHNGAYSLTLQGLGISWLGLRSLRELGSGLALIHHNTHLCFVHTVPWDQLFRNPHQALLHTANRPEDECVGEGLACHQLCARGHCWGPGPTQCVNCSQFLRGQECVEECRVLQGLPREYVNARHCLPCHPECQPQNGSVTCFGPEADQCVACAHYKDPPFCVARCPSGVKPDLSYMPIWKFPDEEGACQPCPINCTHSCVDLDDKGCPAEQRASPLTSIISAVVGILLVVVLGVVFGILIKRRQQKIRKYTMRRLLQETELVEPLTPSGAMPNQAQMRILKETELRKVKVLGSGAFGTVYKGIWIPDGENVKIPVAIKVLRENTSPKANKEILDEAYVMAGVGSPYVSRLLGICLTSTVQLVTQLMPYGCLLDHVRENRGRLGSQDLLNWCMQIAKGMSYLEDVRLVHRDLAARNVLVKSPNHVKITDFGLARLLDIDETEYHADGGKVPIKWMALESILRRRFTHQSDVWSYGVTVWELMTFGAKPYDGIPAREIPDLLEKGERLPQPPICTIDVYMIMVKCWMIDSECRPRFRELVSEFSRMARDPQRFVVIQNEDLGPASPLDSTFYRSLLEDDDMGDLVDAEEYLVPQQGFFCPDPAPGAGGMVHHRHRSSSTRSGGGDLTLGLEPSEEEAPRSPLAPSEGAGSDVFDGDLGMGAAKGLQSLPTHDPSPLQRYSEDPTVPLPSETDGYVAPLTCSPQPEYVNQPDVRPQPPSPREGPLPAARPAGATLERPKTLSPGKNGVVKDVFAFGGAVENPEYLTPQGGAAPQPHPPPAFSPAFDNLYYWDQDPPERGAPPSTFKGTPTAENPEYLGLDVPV

SMILES | IC50 ([1]; read-out: Assay 1 IC50) | IC50 (ErbB2 WT) | IC50 (EGFR) | IC50 [2] | IC50 (EGFR wild type (EGFR WT)) | IC50 ([1]; Assay 1 IC50 (nM))
Cc1cc(Nc2ncnc3cnc(N4CCC4)nc23)ccc1Oc1ccc2scnc2c1 [Example 44, 6-(azetidin-1-yl)-N-(4-(benzo[d]thiazol-5-yloxy)-3-methylphenyl)pyrimido[5,4-d]pyrimidin-4-amine 2,2,2-trifluoroacetate] | 103 nM | 315 nM | 3.31 µM | 70.6 nM | ≥ 5 µM | –
CCOc1ncc2ncnc(Nc3ccc(Oc4ccc5scnc5c4)c(C)c3)c2n1 [Example 46, N-(4-(benzo[d]thiazol-5-yloxy)-3-methylphenyl)-6-ethoxpyrimido[5,4-d]pyrimidin-4-amine 2,2,2-trifluoroacetate] | 95.2 nM | 760 nM | 4.25 µM | 566 nM | ≥ 5 µM | –
Cc1cc(Nc2ncnc3cnc(N4CCOC5(CC5)C4)nc23)ccc1Oc1ccc2c(c1)ncn2C [Example 58, N-(3-methyl-4-((1-methyl-1H-benzo[d]imidazol-5-yl)oxy)phenyl)-6-(4-oxa-7-azaspiro[2.5]octan-7-yl)pyrimido[5,4-d]pyrimidin-4-amine] | 62.5 nM | 123 nM | ≥ 10 µM | 10.6 nM | ≥ 5 µM | –
COC[C@@H](C)Nc1ncc2ncnc(Nc3ccc(Oc4ccc5c(c4)ncn5C)c(C)c3)c2n1 [Example 61, (R)—N2-(1-methoxypropan-2-yl)-N8-(3-methyl-4-((1-methyl-1H-benzo[d]imidazol-5-yl)oxy)phenyl)pyrimido[5,4-d]pyrimidine-2,8-diamine] | 36.9 nM | 107 nM | ≥ 10 µM | 49.5 nM | ≥ 5 µM | –
COC[C@H](C)Nc1ncc2ncnc(Nc3ccc(Oc4ccc5c(c4)ncn5C)c(C)c3)c2n1 [Example 62, (S)—N2-(1-methoxypropan-2-yl)-N8-(3-methyl-4-((1-methyl-1H-benzo[d]imidazol-5-yl)oxy)phenyl)pyrimido[5,4-d]pyrimidine-2,8-diamine] | 39.8 nM | 112 nM | ≥ 10 µM | 27.1 nM | ≥ 5 µM | –
Cc1c(Oc2ccc3c(c2)ncn3C)ccc(Nc2ncnc3cnc(N(C)C)nc23)c1F [Example 71, N8-(2-fluoro-3-methyl-4-((1-methyl-1H-benzo[d]imidazol-5-yl)oxy)phenyl)-N2,N2-dimethylpyrimido[5,4-d]pyrimidine-2,8-diamine 2,2,2-trifluoroacetate] | – | 299 nM | ≥ 10 µM | 76.6 nM | ≥ 5 µM | 70.2 nM
Cc1cc(Nc2ncnc3cnc(N4CCOCC4)nc23)ccc1Oc1ccc2c(c1)ncn2C1CC1 [Example 73, N-(4-((1-cyclopropyl-1H-benzo[d]imidazol-5-yl)oxy)-3-methylphenyl)-6-morpholinopyrimido[5,4-d]pyrimidin-4-amine 2,2,2-trifluoroacetate] | – | 163 nM | ≥ 10 µM | 47.5 nM | ≥ 5 µM | 78 nM
Cc1cc(Nc2ncnc3cnc(N4CCN(CC(F)(F)F)CC4)nc23)ccc1Oc1ccc2c(c1)ncn2C [Example 85, N-(3-methyl-4-((1-methyl-1H-benzo[d]imidazol-5-yl)oxy)phenyl)-6-(4-(2,2,2-trifluoroethyl)piperazin-1-yl)pyrimido[5,4-d]pyrimidin-4-amine] | 204 nM | 726 nM | ≥ 10 µM | 130 nM | ≥ 5 µM | –
Cc1cc(Nc2ncnc3cnc(O[C@@H]4CN(C)C[C@@H]4F)nc23)ccc1Oc1ccc2c(c1)ncn2C [Example 87, 6-(((3R,4S)-4-fluoro-1-methylpyrrolidin-3-yl)oxy)-N-(3-methyl-4-((1-methyl-1H-benzo[d]imidazol-5-yl)oxy)phenyl)pyrimido[5,4-d]pyrimidin-4-amine] | 69.5 nM | 346 nM | ≥ 10 µM | 95.1 nM | ≥ 5 µM | –
CC(=O)O[C@H]1CN(c2ncc3ncnc(Nc4ccc(Oc5ccc6c(c5)ncn6C)c(C)c4)c3n2)C[C@H]1F [Example 90, (3S,4R)-4-fluoro-1-(8-((3-methyl-4-((1-methyl-1H-benzo[d]imidazol-5-yl)oxy)phenyl)amino)pyrimido[5,4-d]pyrimidin-2-yl) pyrrolidin-3-yl acetate] | 41 nM | 93.1 nM | ≥ 10 µM | 29 nM | ≥ 5 µM | –
CON1CCN(c2ncc3ncnc(Nc4ccc(Oc5ccn6ncnc6c5)c(C)c4F)c3n2)CC1 [Example 95, N-(4-([1,2,4]triazolo[1,5-a]pyridin-7-yloxy)-2-fluoro-3-methylphenyl)-6-(4-methoxypiperazin-1-yl)pyrimido[5,4-d]pyrimidin-4-amine] | 25.2 nM | 95.1 nM | ≥ 10 µM | 179 nM | ≥ 5 µM | –
CON1CCN(c2ncc3ncnc(Nc4ccc(Oc5ccn6ncnc6c5)c(C)c4)c3n2)CC1 [Example 96, N-(4-([1,2,4]triazolo[1,5-a]pyridin-7-yloxy)-3-methylphenyl)-6-(4-methoxypiperazin-1-yl)pyrimido[5,4-d]pyrimidin-4-amine] | 23.1 nM | 81.2 nM | 8.89 µM | 96.1 nM | ≥ 5 µM | –
CON1CCN(c2ncc3ncnc(Nc4ccc(Oc5ccc6c(c5)ncn6C)c(C)c4Cl)c3n2)CC1 [Example 98, N-(2-chloro-3-methyl-4-((1-methyl-1H-benzo[d]imidazol-5-yl)oxy)phenyl)-6-(4-methoxypiperazin-1-yl)pyrimido[5,4-d]pyrimidin-4-amine] | 232 nM | 1950 nM | ≥ 10 µM | 266 nM | ≥ 5 µM | –
Cc1cc(Nc2ncnc3cnc(N(C)[C@H]4CN(C)C[C@H]4F)nc23)ccc1Oc1ccc2c(c1)ncn2C [Example 99, N2-((3S,4R)-4-fluoro-1-methylpyrrolidin-3-yl)-N2-methyl-N8-(3-methyl-4-((1-methyl-1H-benzo[d]imidazol-5-yl)oxy)phenyl)pyrimido[5,4-d]pyrimidine-2,8-diamine] | 17.1 nM | 18 nM | 6.47 µM | 44.5 nM | ≥ 5 µM | –
Cc1cc(Nc2ncnc3cnc(N(C)CCC(C)(C)O)nc23)ccc1Oc1ccc2c(c1)ncn2C [Example 102, 2-methyl-4-(methyl(8-((3-methyl-4-((1-methyl-1H-benzo[d]imidazol-5-yl)oxy)phenyl)amino)pyrimido[5,4-d]pyrimidin-2-yl)amino)butan-2-ol] | 23.8 nM | 20.7 nM | 2.73 µM | 9.4 nM | ≥ 5 µM | –
Cc1cc(Nc2ncnc3cnc(NCc4cnn(C)c4C)nc23)ccc1Oc1ccc2c(c1)ncn2C [Example 103, N2-((1,5-dimethyl-1H-pyrazol-4-yl)methyl)-N8-(3-methyl-4-((1-methyl-1H-benzo[d]imidazol-5-yl)oxy)phenyl)pyrimido[5,4-d]pyrimidine-2,8-diamine] | 20.3 nM | 56.6 nM | ≥ 10 µM | 61.5 nM | ≥ 5 µM | –
Clc1cc(Nc2ncnc3cnc(N4CCC4)nc23)ccc1Oc1ccn2ncnc2c1 [Example 112, N-(4-([1,2,4]triazolo[1,5-a]pyridin-7-yloxy)-3-chlorophenyl)-6-(azetidin-1-yl)pyrimido[5,4-d]pyrimidin-4-amine] | 18.7 nM | 44.1 nM | ≥ 10 µM | 190 nM | ≥ 5 µM | –
CN(c1ncc2ncnc(Nc3ccc(Oc4ccc5c(c4)ncn5C)c(Cl)c3)c2n1)[C@H]1CCOC1 [Example 117, (S)—N8-(3-chloro-4-((1-methyl-1H-benzo[d]imidazol-5-yl)oxy)phenyl)-N2-methyl-N2-(tetrahydrofuran-3-yl)pyrimido[5,4-d]pyrimidine-2,8-diamine] | 46.7 nM | 93.3 nM | ≥ 10 µM | 8.3 nM | ≥ 5 µM | –
Cc1cc(Nc2ncnc3cnc(N4C[C@H]5C[C@@H]4CO5)nc23)ccc1Oc1ccn2ncnc2c1 [Example 121, N-(4-([1,2,4]triazolo[1,5-a]pyridin-7-yloxy)-3-methylphenyl)-6-((1R,4R)-2-oxa-5-azabicyclo[2.2.1]heptan-5-yl)pyrimido[5,4-d]pyrimidin-4-amine] | 32.4 nM | 121 nM | ≥ 10 µM | 667 nM | ≥ 5 µM | –
